One compound from patent publication US8193353B2, “6-1H-imidazo-quinazoline and quinolines derivatives, new potent analgesics and anti-inflammatory agents” (Rottapharm S.p.A, priority 2006, dated 2012) can be followed below.

The subject of data set [1] is Zymosan induced paw volume increase. In words: Zymosan-induced paw oedema. The data set is classed as in vivo, rat. The settings on record: oral; 2 hours after challenge. The procedure: (§1) The interplantar injection of Zymosan-induced mechanical hyperalgesia was used as a model of inflammatory pain (Meller, Neuropharmacology, 1994, 33, 1471-1478). In this model, typically a male Sprague-Dawley or Wistar rat (200-250 g) receives an interplantar injection of 3 mg/100 μl zymosan into one hind paw. A marked inflammation occurs in this hind paw. Drugs are administered orally for evaluation of efficacy, 30 min. before the inflammatory insult. The hyperalgesia induced by zymosan administration was evaluated using the Randall-Selitto method (Arch. Int. Pharmacodyn., 1957, 111, 409). The quantitation of the analgesic effect is achieved by an analgesimeter, which consist in applying to the inflamed paw an increasing weight (from 130-140 g up to 500 g). The difference in the mechanical pain threshold between the basal value (generally 230-250 g) and the one tolerated by the animals treated with the drug, determined 4 hours after the inflammatory challenge, is defined as mechanical hyperalgesia. Mechanical hyperalgesia is expressed for the compounds of the invention as ED50, which is the dose of the administered compound able to increase the pain threshold by 50% in comparison with the group of control animals. The corresponding ED100, representing the dose able of reducing of 100% the pain threshold, can be calculated for those cases where there is a linear dose-response relationship. In vivo anti-inflammatory effect exerted by the compound of the invention can be assessed in the same Zymosan induced inflammation test described above, by measuring the volume of the oedema induced by the inflammatory agent. The oedema was evaluated as the increase in the volume of the Zymosan injected paw within a time of 0-2 hrs. The measurements of the variation of the oedema volume of the paw were recorded using hydroplethysmometer, which consists of two plastic cuvettes containing a surfactant liquid, the larger one being used for immersion of the paw, connected to the smaller one which contains a transducer capable of recording small displacements of the volume used for the measure. The paw is immersed in the cuvettes up to the tibiotarsal joint. The volume of the liquid displaced is proportional to the extent of the inflammation. The efficacy of the compounds of the invention in preventing oedema formation is expressed as ED30, is measured 2 hours after the inflammatory challenge, and represents the dose able of reducing of 30%, the Zymosan induced paw volume increase in comparison to control animals (animals treated with Zymosan but treated with only distilled water instead of the testing compound). The corresponding ED50, representing the dose able of reducing of 50% the Zymosan induced paw volume increase, can be calculated for those cases where there is a linear dose-response relationship. In both the experiments, for each test compound, at least three doses were used, with 10 animals per group. Compounds of the invention were tested at 10, 20 and 40 mg/Kg.

The test system of data set [2] is Zymosan-induced mechanical hyperalgesia. In words: Zymosan-induced mechanical hyperalgesia (Randall-Selitto), inflammatory pain. Type of data set: in vivo, rat. As to conditions: oral, 30 min before zymosan, 4 hours after challenge. On the procedure: as §1
The conditions of data set [3]: even at the higher doses tested. From the text:
The performance of representative compounds of Formula (I), in the tests described above, is summarized for both the analgesic effect and the anti-inflammatory effect in Table 4, where the activity of the compounds of the invention is compared with the performance in the same test of well known standards.

`CS(=O)(=O)Nc1ccc([N+](=O)[O-])cc1Oc1ccccc1` [Nimesulide]: the “Oedema Reduction ED30” value in data set [1] worked out at 0.5 mg/kg. Besides, the ED50 in data set [2] (Rattus norvegicus, read-out: Analgesia ED50) is 7.4 mg/kg. Besides, the “Analgesia ED100” value in data set [2] amounted to 161 mg/kg. In addition, in data set [3], the ulcerative side effects entry was “ulcerative side effects”.

For orientation: ED50 means the dose that gives a 50% effect, or the effect in half of the subjects.
